From patent US20220185791A1, “POLYMORPHS OF A CARDIAC TROPONIN ACTIVATOR” (Amgen Inc., priority 2019, published 2022)
In brackets after ≈: the same amount, converted by molar mass.

Assays:
[1] = Solubility in water (excess solid, UPLC-UV); type: physicochemical; details: thermodynamic from solid, room temperature
Excerpt: Suspensions were filtered.

[2] = Solid stability (UPLC; XRPD, DSC, TGA); type: physicochemical; details: 5 weeks at 25° C./60% RH, 40° C./75% RH, 40° C./ambient or 60° C./ambient
Method: Drug substance was stored at 25° C./60% RH, 40° C./75% RH, 40° C./ambient or 60° C./ambient conditions. Chemical stability was determined at each time point by dissolving the drug substance in 50% acetonitrile water for ultra performance liquid chromatography (“UPLC”) analysis. Physical stability was determined by analyzing the solid by XRPD, DSC and TGA.

solubility [1]: 9 µg/mL (≈ 17.6 µM)
Physical and chemical stability on storage [2]: physically and chemically stable
SMILES: CS(=O)(=O)c1cncc(C(=O)N2[C@@H](C(=O)N[C@@H](c3cc(F)c(Cl)cc3F)C3CC3)C[C@H]3C[C@H]32)c1 [Form I, (1R,3R,5R)-N-((R)-(4-chloro-2,5-difluorophenyl)(cyclopropyl)methyl)-2-(5-(methylsulfonyl)nicotinoyl)-2-azabicyclo[3.1.0]hexane-3-carboxamide]
